Experimental data published in publication PMC8450399, “Expression Profiles and Functional Characterization of Chemosensory Protein 15 (HhalCSP15) in the Brown Marmorated Stink Bug Halyomorpha halys” (Frontiers in Physiology, 2021).

Legend:
[1] = molecular target: HhalCSP15; experiment: Fluorescence competitive binding assay with 1-NPN as fluorescent probe; set-up: species or system Halyomorpha halys; conditions: for Ki: Ki=IC50/(1+[1-NPN]/K1-NPN), HhalCSP15 and 1-NPN 2 μM, pH 7.4, triplicate, read-out: Ki, dissociation constant; for binding ability with HhalCSP15 (in words): fluorescence binding experiments
Description: The binding abilities of HhalCSP15 to 43 volatiles were measured on an F-380 fluorescence spectrophotometer (Tianjin, China) using 10-nm slits and a 1-cm light path. As the fluorescent probe, N-phenyl-1-naphthylamine (1-NPN) was excited at the wavelength of 337nm, and emission spectra were recorded between 390 and 530nm. To measure the affinity of 1-NPN to the HhalCSP15 protein, a 2-μM solution of purified protein in 50-mM Tris-HCl at pH 7.4 was titrated with aliquots of 1-mM 1-NPN dissolved in methanol to final concentrations ranging from 2 to 16μM.
[…] Dissociation constants of the competitors were calculated by the equation Ki=IC50/(1+[1-NPN]/K1-NPN), where IC50 is the concentration of ligands halving the initial fluorescence value of 1-NPN, [1-NPN] is the free concentration of 1-NPN, and K1-NPN is the dissociation constant of the HhalCSP15/1-NPN complex.

[2] = system: Halyomorpha halys antennae; experiment: Electroantennography (EAG) recordings; conditions: 10 μl of 100 μg/μl in paraffin oil; for EAG response of antennae (in words; comparison among nymphs, females, males): third instar nymphs and 1- to 3-day old male and female adults, solvent-corrected
Description: The antennal responses of H. halys to the three ligands of […]15 were evaluated using conventional EAG methods as described in previous study ([Wang et al., 2020]). Briefly, antennae of the third instar nymphs and 1- to 3-day old male and female adults were dissected, and a few terminal segments at the distal end were excised. The treated antennae were attached to electrode holders with electrode gel. Ten microliters of tested chemicals (100μg/μl, diluted in paraffin oil) were applied to filter paper strips (1.0cm×2.0cm) and inserted into a glass Pasteur pipette as a cartridge. The test cartridge was connected to a stimulus controller (CS-55; Syntech, Kirchzarten, Germany) that generated a 0.5s stimulus at 30s intervals, with a constant flow of 10ml/s. The signals generated by the antennae were recorded using EAG Pro (Syntech). A blank stimulus (solvent control) was presented before testing the compound. For each compound, EAG responses were recorded from eight antennae of different insects. The EAG responses elicited by the test odor stimuli were corrected by subtracting EAG response from the solvent control. The corrected EAG data were statistically analyzed using ANOVA followed by Tukey's HSD test.

| SMILES | Ki [1] | binding ability with HhalCSP15 (in words) [1] | EAG response of antennae (in words; comparison among nymphs, females, males) [2] | other results |
| --- | --- | --- | --- | --- |
| c1ccc(Nc2cccc3ccccc23)cc1 [1-NPN, N-phenyl-1-naphthylamine, reference compound] |  |  |  | Kd ([1]; 2 μM protein in 50 mM Tris-HCl pH 7.4 titrated with 1-NPN 2 to 16 μM, read-out: dissociation constant of the HhalCSP15/1-NPN complex): 9.36 µM |
| CCC\C=C/C=C/C=C/C(=O)OC [Methyl (2E,4E,6Z)-decatrienoate] | 9.6 ± 0.4 µM | identified as a binding ligand | significantly greater EAG responses in adults compared with nymphs |  |
| CCCCCCCCCCCCC [Tridecane] |  | could not bind |  |  |
| CC/C=C\CCOC(=O)c1ccccc1 [cis-3-Hexen-1-yl benzoate] | 10.5 ± 0.8 µM | strong binding abilities |  | EAG response compared among ligands (in words) ([2]; nymphs and adults): highest EAG response among all ligands in both nymphs and adults; EAG response of antennae (in words; comparison among nymphs, females, males) ([2]; listed as Cis-3-hexen-1-yl benzoate): significantly greater responses in females compared with males and nymphs; EAG response of antennae (in words; comparison among nymphs, females, males) ([2]; listed as cis-3-hexen-1-yl benzoate): elicit an EAG response in both nymph and adult H. halys antennae |
| CCCCCCC/C=C/C=O [trans-2-Decenal] |  | could not bind |  |  |
| CC(=O)/C=C/C1=C(C)CCCC1(C)C [β-Ionone] | 11.9 ± 0.6 µM | strong binding abilities | elicit an EAG response in both nymph and adult H. halys antennae | EAG response of antennae (in words; comparison among nymphs, females, males) ([2]; listed as β-ionone): significantly greater responses in females compared with males and nymphs |
